Read-outs that look alike come from different tables or passages of the source.
How the values were obtained:
Type in all cases: cell-based
human SCD5 [1] = molecular target: human SCD5 (Homo sapiens, UniProt Q86SK9); experiment: Growth inhibition of yeast strain expressing human SCD5 as sole desaturase (OLE1 deleted), OD600 readout
human SCD1 [2] = molecular target: human SCD1 (Homo sapiens, UniProt O00767); experiment: Growth inhibition of yeast strain expressing human SCD1 as sole desaturase (OLE1 deleted), OD600 readout
human SCD1 [3] = molecular target: T1, human SCD1 (Homo sapiens, UniProt O00767); experiment: as above
T1 construct: expressed in transfected cells; host or cells: yeast strain with OLE1 deleted, plasmid-borne human SCD1 (selected in SD-Ura)
T1 sequence (O00767 1-359): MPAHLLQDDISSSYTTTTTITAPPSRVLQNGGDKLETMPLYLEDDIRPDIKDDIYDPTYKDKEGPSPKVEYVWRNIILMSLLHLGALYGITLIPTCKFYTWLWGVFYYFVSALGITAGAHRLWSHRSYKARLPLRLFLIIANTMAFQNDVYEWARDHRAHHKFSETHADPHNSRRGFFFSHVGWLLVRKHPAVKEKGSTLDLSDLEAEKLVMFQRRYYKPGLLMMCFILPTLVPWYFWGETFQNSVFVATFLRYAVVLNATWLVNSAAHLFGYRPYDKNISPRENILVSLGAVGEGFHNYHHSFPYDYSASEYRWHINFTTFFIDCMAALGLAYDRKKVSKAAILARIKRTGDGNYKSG

human SCD5 [4] = molecular target: T2, human SCD5 (Homo sapiens, UniProt Q86SK9); experiment: Growth inhibition of yeast strain expressing human SCD5 as sole desaturase (OLE1 deleted), OD600 readout
T2 construct: expressed in transfected cells; host or cells: yeast strain with OLE1 deleted, plasmid-borne human SCD5 (selected in SD-Ura)
T2 sequence (Q86SK9 1-330): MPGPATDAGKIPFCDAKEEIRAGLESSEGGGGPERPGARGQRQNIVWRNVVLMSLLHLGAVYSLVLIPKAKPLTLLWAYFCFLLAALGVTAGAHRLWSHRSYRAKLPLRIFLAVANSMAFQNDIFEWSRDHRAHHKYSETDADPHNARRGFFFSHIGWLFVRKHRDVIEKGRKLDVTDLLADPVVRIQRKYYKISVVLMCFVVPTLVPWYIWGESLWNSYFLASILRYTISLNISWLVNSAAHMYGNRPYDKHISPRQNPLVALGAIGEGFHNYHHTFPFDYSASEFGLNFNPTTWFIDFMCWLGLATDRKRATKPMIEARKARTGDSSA

[5] = yeast strain expressing human SCD1 as sole desaturase, growth (OD600) after 40 h at 30° C., read-out: SCD1 IC50
[6] = yeast strain expressing human SCD5 as sole desaturase, growth (OD600) after 40 h at 30° C., read-out: SCD5 IC50

SMILES | IC50 (human SCD1 [3]; [5]) [µM] | IC50 (human SCD5 [4]; [6]) [nM] | further results
CN1N=C(C(=O)Nc2ncc(Cc3ccccc3)s2)CCC1=O |  |  | IC50 (human SCD5 [1]): 0.19 µM; IC50 (human SCD1 [2]): 590 nM
CN1N=C(C(=O)Nc2ncc(Cc3cccc(Cl)c3)cn2)CCC1=O [Compound 175, N-(5-(3-chlorobenzyl)pyrimidin-2-yl)-1-methyl-6-oxo-1,4,5,6-tetrahydropyridazine-3-carboxamide] | > 45 |  | IC50 (human SCD5 [1]): 20.1 µM
CN1N=C(C(=O)Nc2ccc(Cc3cccc(C4CC4)c3)cn2)CCC1=O [Example 23, N-(5-(3-cyclopropylbenzyl)pyridin-2-yl)-1-methyl-6-oxo-1,4,5,6-tetrahydropyridazine-3-carboxamide] | > 45 | 2490 | 
Cn1cc(C(=O)Nc2ccc(Cc3cc(F)cc(C#N)c3)cn2)ccc1=O [Example 25, N-(5-(3-cyano-5-fluorobenzyl)pyridin-2-yl)-1-methyl-6-oxo-1,6-dihydropyridine-3-carboxamide] |  |  | IC50 (human SCD5 [4]; SCD5 IC50): 530 nM; IC50 (human SCD1 [3]; SCD1 IC50): 4.03 µM
CN1N=C(C(=O)Nc2ccc(Cc3cccc(Br)c3)cn2)CCC1=O [Example 27, N-(5-(3-bromobenzyl)pyridin-2-yl)-1-methyl-6-oxo-1,4,5,6-tetrahydropyridazine-3-carboxamide] | > 45 | 390 | 
CN1N=C(C(=O)Nc2ccc(Cc3cc(F)cc(Cl)c3)cn2)CCC1=O [Example 28, N-(5-(3-chloro-5-fluorobenzyl)pyridin-2-yl)-1-methyl-6-oxo-1,4,5,6-tetrahydropyridazine-3-carboxamide] | 1.95 | 20 | 
COc1cccc(Cc2ccc(NC(=O)C3=NN(C)C(=O)CC3)nc2)c1 [Example 30, N-(5-(3-methoxybenzyl)pyridin-2-yl)-1-methyl-6-oxo-1,4,5,6-tetrahydropyridazine-3-carboxamide] | > 45 | 3530 | 
CN1N=C(C(=O)Nc2ccc(Cc3cc(Cl)cc(Cl)c3)cn2)CCC1=O [Example 31] | 6.28 | 50 | 
Cn1nc(C(=O)Nc2ccc(Cc3ccc(F)c(F)c3)cn2)ccc1=O [Example 35, N-(5-(3,4-difluorobenzyl)pyridin-2-yl)-1-methyl-6-oxo-1,6-dihydropyridazine-3-carboxamide] | > 45 | 300 | 
Cn1nc(C(=O)Nc2ccc(Cc3ccc(Cl)cc3)cn2)ccc1=O [Example 36, N-(5-(4-chlorobenzyl)pyridin-2-yl)-1-methyl-6-oxo-1,6-dihydropyridazine-3-carboxamide] | 16.9 | 380 | 
Cn1nc(C(=O)Nc2ccc(Cc3cc(F)cc(F)c3)cn2)ccc1=O [Example 37, N-(5-(3,5-difluorobenzyl)pyridin-2-yl)-1-methyl-6-oxo-1,6-dihydropyridazine-3-carboxamide] | 10.2 | 50 | 
Cn1nc(C(=O)Nc2ccc(CC3CCCCC3)cn2)ccc1=O [Example 38, N-(5-(cyclohexylmethyl)pyridin-2-yl)-1-methyl-6-oxo-1,6-dihydropyridazine-3-carboxamide] | 15.7 | 890 | 
Cn1nc(C(=O)Nc2ccc(Cc3ccc(C(F)(F)F)cc3)cn2)ccc1=O [Example 39, 1-methyl-6-oxo-N-(5-(4-(trifluoromethyl)benzyl)pyridin-2-yl)-1,6-dihydropyridazine-3-carboxamide] | > 45 | 920 | 
Cn1nc(C(=O)Nc2ccc(Cc3cc(F)c(F)c(F)c3)cn2)ccc1=O [Example 41, 1-methyl-6-oxo-N-(5-(3,4,5-trifluorobenzyl)pyridin-2-yl)-1,6-dihydropyridazine-3-carboxamide] | 0.19 | 10 | 
Cn1nc(C(=O)Nc2ccc(Cc3cc(F)cc(C#N)c3)cn2)ccc1=O [Example 42, N-(5-(3-cyano-5-fluorobenzyl)pyridin-2-yl)-1-methyl-6-oxo-1,6-dihydropyridazine-3-carboxamide] | 2.41 | 80 | 
Cn1nc(C(=O)Nc2ccc(Cc3ccc(F)c(Cl)c3)cn2)ccc1=O [Example 46, N-(5-(3-chloro-4-fluorobenzyl)pyridin-2-yl)-1-methyl-6-oxo-1,6-dihydropyridazine-3-carboxamide] | 0.06 | 10 | 
COc1ccc(Cc2ccc(NC(=O)c3ccc(=O)n(C)c3)nc2)cc1F [Example 49, N-(5-(3-fluoro-4-methoxybenzyl)pyridin-2-yl)-1-methyl-6-oxo-1,6-dihydropyridine-3-carboxamide] | > 45 |  | IC50 (human SCD5 [4]; SCD5 IC50): 21200 nM

Continued, in another order:

IC50 (human SCD1 [3]; [5]) [µM] | IC50 (human SCD5 [4]; [6]) [nM] | SMILES | further results
26.4 | 310 | CN1N=C(C(=O)Nc2ccc(Cc3cccc(C(F)F)c3)cn2)CCC1=O [Example 32, N-(5-(3-(difluoromethyl)benzyl)pyridin-2-yl)-1-methyl-6-oxo-1,4,5,6-tetrahydropyridazine-3-carboxamide] | 
> 45 | 18000 | CN1N=C(C(=O)Nc2ccc(Cc3ccc(C#N)c(Cl)c3)cn2)CCC1=O [Example 33, N-(5-(3-chloro-4-cyanobenzyl)pyridin-2-yl)-1-methyl-6-oxo-1,4,5,6-tetrahydropyridazine-3-carboxamide] | 
> 45 | 710 | CN1N=C(C(=O)Nc2ccc(CC3=CCCCC3)cn2)CCC1=O [Example 34, N-(5-(cyclohexenylmethyl)pyridin-2-yl)-1-methyl-6-oxo-1,4,5,6-tetrahydropyridazine-3-carboxamide] | 
0.11 | 10 | Cn1nc(C(=O)Nc2ccc(Cc3cc(F)cc(Cl)c3)cn2)ccc1=O [Example 40, N-(5-(3-chloro-5-fluorobenzyl)pyridin-2-yl)-1-methyl-6-oxo-1,6-dihydropyridazine-3-carboxamide] | 
14.1 | 780 | COc1cccc(Cc2ccc(NC(=O)c3ccc(=O)n(C)n3)nc2)c1 [Example 44, N-(5-(3-methoxybenzyl)pyridin-2-yl)-1-methyl-6-oxo-1,6-dihydropyridazine-3-carboxamide] | 
15.4 | 430 | Cn1nc(C(=O)Nc2ccc(Cc3cccc(F)c3)cn2)ccc1=O [Example 45, N-(5-(3-fluorobenzyl)pyridin-2-yl)-1-methyl-6-oxo-1,6-dihydropyridazine-3-carboxamide] | 
1.1 | 130 | Cn1nc(C(=O)Nc2ccc(Cc3cccc(Cl)c3)cn2)ccc1=O [Example 47, N-(5-(3-chlorobenzyl)pyridin-2-yl)-1-methyl-6-oxo-1,6-dihydropyridazine-3-carboxamide] | 
0.15 | 10 | Cn1cc(C(=O)Nc2ccc(Cc3cccc(Cl)c3)cn2)ccc1=O [Example 48, N-(5-(3-chlorobenzyl)pyridin-2-yl)-1-methyl-6-oxo-1,6-dihydropyridine-3-carboxamide] | 
